From patent US20230131903A1, “PESTICIDALLY ACTIVE FUSED BICYCLIC HETEROAROMATIC COMPOUNDS” (SYNGENTA CROP PROTECTION AG, priority 2020, published 2023)

Columns and labels:
Assay type in all cases: in vivo
[1] = test system: Spodoptera littoralis (Egyptian Cotton Leaf Worm); assay: Example B5: Spodoptera littoralis (Egyptian cotton leaf worm), cotton leaf discs sprayed, L1 larvae; conditions: foliar, 72 h, application rate of 200 ppm, 3 days after infestation, in comparison to untreated samples, read-out: control in at least one of the three categories (mortality, anti-feedant effect, or growth inhibition)
Method: Example B5: Spodoptera littoralis (Egyptian Cotton Leaf Worm)
Cotton leaf discs were placed onto agar in 24-well microtiter plates and sprayed with aqueous test solutions prepared from 10′000 ppm DMSO stock solutions. After drying the leaf discs were infested with five L1 larvae. The samples were assessed for mortality, anti-feeding effect, and growth inhibition in comparison to untreated samples 3 days after infestation. Control of Spodoptera littoralis by a test sample is given when at least one of the categories mortality, anti-feedant effect, and growth inhibition is higher than the untreated sample.

[2] = test system: Diabrotica Balteata (Corn Root Worm); assay: Example B1: Diabrotica balteata (corn root worm), maize sprouts sprayed, L2 larvae; conditions: 96 h, application rate of 200 ppm, 4 days after infestation, in comparison to untreated samples, read-out: control in at least one of the two categories (mortality or growth inhibition)
Method: Example B1: Diabrotica Balteata (Corn Root Worm)
Maize sprouts placed onto an agar layer in 24-well microtiter plates were treated with aqueous test solutions prepared from 10′000 ppm DMSO stock solutions by spraying. After drying, the plates were infested with L2 larvae (6 to 10 per well). The samples were assessed for mortality and growth inhibition in comparison to untreated samples 4 days after infestation.
(§1) The following compounds gave an effect of at least 80% control in at least one of the two categories (mortality or growth inhibition) at an application rate of 200 ppm

[3] = test system: Plutella xylostella (Diamond Back Moth); assay: Example B4: Plutella xylostella (diamond back moth), artificial diet, eggs; conditions: 192 h, application rate of 200 ppm, 8 days after infestation, in comparison to untreated samples, read-out: control in at least one of the two categories (mortality or growth inhibition)
Method: Example B4: Plutella xylostella (Diamond Back Moth)
24-well microtiter plates with artificial diet were treated with aqueous test solutions prepared from 10′000 ppm DMSO stock solutions by pipetting. After drying, Plutella eggs were pipetted through a plastic stencil onto a gel blotting paper and the plate was closed with it. The samples were assessed for mortality and growth inhibition in comparison to untreated samples 8 days after infestation.
as §1

[4] = test system: Euschistus heros (Neotropical Brown Stink Bug); assay: Example B2: Euschistus heros (neotropical brown stink bug), soybean leaves sprayed, N2 nymphs; conditions: 120 h, application rate of 200 ppm, 5 days after infestation, in comparison to untreated samples, read-out: control in at least one of the two categories (mortality or growth inhibition)
Method: Example B2: Euschistus heros (Neotropical Brown Stink Bug)
Soybean leaves on agar in 24-well microtiter plates were sprayed with aqueous test solutions prepared from 10′000 ppm DMSO stock solutions. After drying the leaves were infested with N2 nymphs. The samples were assessed for mortality and growth inhibition in comparison to untreated samples 5 days after infestation.
as §1

[5] = test system: Chilo suppressalis (Striped Rice Stemborer); assay: Example B3: Chilo suppressalis (striped rice stemborer), artificial diet, L2 larvae; conditions: 144 h, application rate of 200 ppm, 6 days after infestation, in comparison to untreated samples, read-out: control in at least one of the three categories (mortality, anti-feedant effect, or growth inhibition)
Method: Example B3: Chilo suppressalis (Striped Rice Stemborer)
24-well microtiter plates with artificial diet were treated with aqueous test solutions prepared from 10′000 ppm DMSO stock solutions by pipetting. After drying, the plates were infested with L2 larvae (6-8 per well). The samples were assessed for mortality, anti-feeding effect, and growth inhibition in comparison to untreated samples 6 days after infestation. Control of Chilo suppressalis by a test sample is given when at least one of the categories mortality, anti-feedant effect, and growth inhibition is higher than the untreated sample.

| SMILES | percent control (mortality, anti-feedant effect or growth inhibition) at 200 ppm [1] | percent control (mortality or growth inhibition) at 200 ppm [2] | percent control (mortality or growth inhibition) at 200 ppm [3] | percent control (mortality or growth inhibition) at 200 ppm [4] | percent control (mortality, anti-feedant effect or growth inhibition) at 200 ppm [5] |
| --- | --- | --- | --- | --- | --- |
| CC(Nc1nc(=O)n(C)c2c(C(F)(F)F)cc(Br)cc12)c1ncnn1-c1ncccn1 (stereo not shown) [P5, 6-bromo-1-methyl-4-[1-(2-pyrimidin-2-yl-1,2,4-triazol-3-yl)ethylamino]-8-(trifluoromethyl)quinazolin-2-one] | ≥ 80% | ≥ 80% | ≥ 80% | ≥ 80% | ≥ 80% |
| CC(Nc1cc(=O)[nH]c2c(Cl)cc(C(F)(F)F)cc12)c1nccnc1-c1ncccn1 (stereo not shown) [P8, 8-chloro-4-[1-(3-pyrimidin-2-ylpyrazin-2-yl)ethylamino]-6-(trifluoromethyl)-1H-quinolin-2-one] |  | ≥ 80% | ≥ 80% |  |  |
| CC(c1ncnn1-c1ncccn1)N(CC1CC1)c1nc(=O)[nH]c2c(Cl)cc(C(F)(F)F)cc12 (stereo not shown) [P1, 8-chloro-4-[cyclopropylmethyl-[1-(2-pyrimidin-2-yl-1,2,4-triazol-3-yl)ethyl]amino]-6-(trifluoromethyl)-1H-quinazolin-2-one] |  | ≥ 80% | ≥ 80% | ≥ 80% |  |
| CC(c1ncnn1-c1ncccn1)N(C)c1nc(=O)n(C)c2c(Cl)cc(C(F)(F)F)cc12 (stereo not shown) [P10, 8-chloro-1-methyl-4-[methyl-[1-(2-pyrimidin-2-yl-1,2,4-triazol-3-yl)ethyl]amino]-6-(trifluoromethyl) quinazolin-2-one] |  |  |  | ≥ 80% |  |
| CC(c1ncnn1-c1ncccn1)N(CC1CC1)c1nc(=O)[nH]c2c(Br)cc(C(F)(F)F)cc12 (stereo not shown) [P3, 8-bromo-4-[cyclopropylmethyl-[1-(2-pyrimidin-2-yl-1,2,4-triazol-3-yl)ethyl]amino]-6-(trifluoromethyl)-1H-quinazolin-2-one] |  | ≥ 80% | ≥ 80% | ≥ 80% |  |
| CC(Nc1nc(=O)[nH]c2c(Cl)cc(C(F)(F)F)cc12)c1ncnn1-c1ncccn1 (stereo not shown) [P4, 8-chloro-4-[1-(2-pyrimidin-2-yl-1,2,4-triazol-3-yl)ethylamino]-6-(trifluoromethyl)-1H-quinazolin-2-one] | ≥ 80% |  | ≥ 80% | ≥ 80% | ≥ 80% |
| CC(c1ncnn1-c1ncccn1)N(C)c1nc(=O)n(C)c2c(C(F)(F)F)cc(Br)cc12 (stereo not shown) [P6, 6-bromo-1-methyl-4-[methyl-[1-(2-pyrimidin-2-yl-1,2,4-triazol-3-yl)ethyl]amino]-8-E (trifluoromethyl)quinazolin-2-one] |  | ≥ 80% |  | ≥ 80% |  |
| CC(Nc1nc(=O)n(C)c2c(Cl)cc(C(F)(F)F)cc12)c1ncnn1-c1ncccn1 (stereo not shown) [P7, 8-chloro-1-methyl-4-[1-(2-pyrimidin-2-yl-1,2,4-triazol-3-yl)ethylamino]-6-(trifluoromethyl) quinazolin-2-one] |  |  | ≥ 80% | ≥ 80% | ≥ 80% |
| CC(Nc1nc(=O)[nH]c2c(Br)cc(C(F)(F)F)cc12)c1ncnn1-c1ncccn1 (stereo not shown) [P2] |  | ≥ 80% | ≥ 80% | ≥ 80% | ≥ 80% |
| CC(c1ncnn1-c1ncccn1)N(C)c1nc(=O)n(CC(F)(F)F)c2ccc(C(F)(F)F)cc12 (stereo not shown) [P12, 4-[methyl-[1-(2-pyrimidin-2-yl-1,2,4-triazol-3-yl)ethyl]amino]-1-(2,2,2-trifluoroethyl)-6-(trifluoromethyl) quinazolin-2-one] |  |  |  | ≥ 80% |  |
